Data on nine compounds can be found in US20150152091A1, “CROP ENHANCEMENT” (Syngenta Participations AG, priority 2012, published 2015).

Molecules are shown by their SMILES.

Format in all cases: in vivo
Assay [1] has as its system Soybean seeds cv. Toliman. Kind of assay: Soybean seedling emergence in saturated cold test (seed treatment). The settings on record: for Total shoot dry mass: per tray. As for the experimental part: (§1) Soybean seeds cv. Toliman were treated with a test compound of formula I formulated as FS100, at a dose of 0.05 g ai/kg, 0.005 g ai/kg, or 0.0001 g ai/kg seeds. Seeds were planted on 2 cm levelled pre-chilled moist sand and covered with a 2 cm layer of a mixture of steamed soil and sand (1:1). Enough cold water (10° C.) was added to the sand-soil mixture to adjust soil moisture to 60% water holding capacity. The seeds were incubated at 10° C. in the dark for 10 days and transferred into a chamber with alternating temperature (25° C. day/23° C. night) and light source (12 h) for 10 days. Seedling emergence in % and dry mass of above parts of seedling per tray was determined at the end of the incubation period. The test was performed using four replicates (4×50 seeds).

Assay [2] relates to Soybean seeds cv. Toliman. In words: Soybean seedling emergence in saturated warm test (seed treatment). The procedure: as §1, with “seeds). Treated seeds used in the saturated cold test were evaluated in parallel in a saturated warm test. Test conditions were the same as those described for the 10 day warm incubation period of the saturated cold test. Briefly, seeds were placed onto a saturated sand layer of 2 cm and covered with saturated sand-soil mixture (60% WHC) at room temperature. The seeds were incubated 10 days at 25° C. day/23° C. night and 12 h light. Seedling emergence and shoot dry mass was determined as described in the saturated cold test method. The test was performed using four replicates each 50 seeds.” for “seeds).”

The test system of assay [3] is temperate cauliflower Spacestar seeds (Brassica oleracea cv Botrytis). Kind of assay: Standard paper germination test for Brassica, suboptimal conditions. To be noted: 25 μM, 10° C. in the light. The procedure: The effect of compounds of Formula (I) on the germination of Brassica oleracea cv Botrytis or common cauliflower was tested on two types of cauliflowers: temperate types and tropical types. These two types were chosen because they display different sensitivities to the light conditions and temperature during germination. Germination of a sensitive temperate type is inhibited by light at 10° C. while for the tropical types germination at 20° is stimulated by the presence of light. […] The temperate seed batches tested are part of commercially produced seed batches of various varieties which are known to be sensitive to light at 10° C. These seeds were harvested and cleaned according standard commercial procedures. Ready seed batches were used (Ready indicates the processing level of these seeds: they have been cleaned and sized but received no other treatments). The tropical seed batches tested are part of seed batches produced as basic seed (for maintenance of the parental line) and were processed accordingly. Germination was assessed using the standard paper germination test for Brassica: Fifty seeds were placed on blue germination paper, which was moistened with the appropriate solutions, in closed oblong germination boxes. Each condition was tested in duplo. Germination boxes were placed in controlled germination cabinets with the appropriate temperature and light conditions. Germination of seeds was counted at regular intervals. Seeds were considered to be germinated when the radical had protruded the testa and endosperm (radical size approximately 1 mm). Test compounds were dissolved in DMSO at a concentration of 50 mM and stored at −20° C. The strigolactone analogue GR24 (commercially available as a racemic mixture of 2 diastereoisomers, referred to as “synthetic strigolactone GR-24” and first prepared by Johnson A. W. & all, Journal of the Chemical Society, Perkin Transactions 1, 1981, page 1734-1743) was included as positive control. Germination solutions were prepared by diluting the stock solutions with demineralized water till 25 μM. As control solutions demineralized water and a 0.05% v/v DMSO solution were used.

The mark [4] stands for this setting: 0.05 g ai/kg seeds, FS100, 10 days 10° C. dark then 10 days 25/23° C.
Setting [5] is: 0.05 g ai/kg seeds, 10 days 25/23° C.
[6] abbreviates: Spacestar 11B313 (cold-sensitive), set A.
[7] abbreviates: Spacestar 11B314 (not cold sensitive), set A.
Setting [8] is: Spacestar 11B313 (cold-sensitive), set B.
[9] abbreviates: Spacestar 11B314 (not cold sensitive), set B.

As to `CC1=CC(OC=C2C(=O)N(C(=O)OC(C)(C)C)C3c4ccccc4CC23)OC1=O` (mixture of isomers) [Compound A5], the “Seedling emergence (%)” value was found to be 48% in assay [1] (0.0001 g ai/kg seeds, FS100); 51.5% in assay [1] (0.005 g ai/kg seeds, FS100); 55% in assay [1] (setting [4]); 91% in assay [2] (0.0001 g ai/kg seeds); 91.5% in assay [2] (0.005 g ai/kg seeds); 91.5% in assay [2] (setting [5]). The “Total shoot dry mass” value stood at 3.420 g in assay [1] (0.0001 g ai/kg seeds); 3.815 g in assay [1] (0.005 g ai/kg seeds); 4.105 g in assay [1] (0.05 g ai/kg seeds); 6.260 g in assay [2] (0.0001 g ai/kg seeds); 6.095 g in assay [2] (0.005 g ai/kg seeds); 6.148 g in assay [2] (0.05 g ai/kg seeds). The “Gmax (%), total germination as percentage of sown seeds” value (“Gmax (%) … as percentage of sown seeds” for short) in assay [3] (setting [6]) turned out to be 74.5%; in assay [3] (setting [7]) it was 92.5%. For the same compound, the “stimulation (%), extra germination compared to the DMSO treatment” value (“stimulation (%), extra germination” for short) was found to be 24.2% in assay [3] (setting [6]) and 2.2% in assay [3] (setting [7]).
Regarding `CC1=CC(OC=C2C(=O)NC3c4cccc(C)c4CC23)OC1=O` (mixture of isomers) [Compound A9], in assay [3] (setting [8]), the “Gmax (%) … as percentage of sown seeds” value came out at 59.8% and the “stimulation (%), extra germination” value amounted to 10.6%. In assay [3] (setting [9]), the “Gmax (%) … as percentage of sown seeds” value came to 94.0% and the “stimulation (%), extra germination” value was 9.3%.
As to `CC1=CC(OC=C2C(=O)NC3c4ccccc4CC23)OC1=O` (stereo not drawn) [Compound A1], the “Seedling emergence (%)” value in assay [1] (0.0001 g ai/kg seeds, FS100) stood at 67.5%; in assay [1] (0.005 g ai/kg seeds, FS100), 63.5%; in assay [1] (setting [4]), 54.5%; in assay [2] (0.0001 g ai/kg seeds) it was 88.5%; in assay [2] (0.005 g ai/kg seeds), 89%; in assay [2] (setting [5]), 91%. Further, the “Total shoot dry mass” value in assay [1] (0.0001 g ai/kg seeds) is 5.298 g; in assay [1] (0.005 g ai/kg seeds), 5.018 g; in assay [1] (0.05 g ai/kg seeds), 4.438 g; in assay [2] (0.0001 g ai/kg seeds), 6.053 g; in assay [2] (0.005 g ai/kg seeds), 6.010 g; in assay [2] (0.05 g ai/kg seeds), 6.023 g. For the same compound, the “Gmax (%) … as percentage of sown seeds” value in assay [3] (setting [6]) is 77.0%; in assay [3] (setting [7]), 90.5%. In addition, the entries for the “stimulation (%), extra germination” value in assay [3] (setting [6]) and in assay [3] (setting [7]) were 28.3% and 0.0%, respectively.
As for `CC1=CC(OC=C2C(=O)NC3c4cccc(Br)c4CC23)OC1=O` (stereo not drawn) [Compound A2], the “Seedling emergence (%)” value was 48.5% in assay [1] (0.0001 g ai/kg seeds, FS100); 49.5% in assay [1] (0.005 g ai/kg seeds, FS100); 56% in assay [1] (setting [4]); 89% in assay [2] (0.0001 g ai/kg seeds); 87.5% in assay [2] (0.005 g ai/kg seeds); 91.5% in assay [2] (setting [5]). Also, the “Total shoot dry mass” value turned out to be 3.810 g in assay [1] (0.0001 g ai/kg seeds); 3.725 g in assay [1] (0.005 g ai/kg seeds); 3.993 g in assay [1] (0.05 g ai/kg seeds); 5.763 g in assay [2] (0.0001 g ai/kg seeds); 6.105 g in assay [2] (0.005 g ai/kg seeds); 6.325 g in assay [2] (0.05 g ai/kg seeds).
As for `CC1=CC(OC=C2C(=O)N(c3ccccc3)C3c4ccccc4CC23)OC1=O` (stereo not drawn) [Compound A3], the “Seedling emergence (%)” value in assay [1] (0.0001 g ai/kg seeds, FS100) is recorded as 67%; in assay [1] (0.005 g ai/kg seeds, FS100), 57%; in assay [1] (setting [4]), 51.5%; in assay [2] (0.0001 g ai/kg seeds), 91%; in assay [2] (0.005 g ai/kg seeds) it was 87%; in assay [2] (setting [5]) it was 81%. The “Total shoot dry mass” value in assay [1] (0.0001 g ai/kg seeds) is reported as 4.838 g; in assay [1] (0.005 g ai/kg seeds) it was 4.540 g; in assay [1] (0.05 g ai/kg seeds) it was 3.850 g; in assay [2] (0.0001 g ai/kg seeds), 6.158 g; in assay [2] (0.005 g ai/kg seeds) it was 6.235 g; in assay [2] (0.05 g ai/kg seeds), 5.918 g. For the same compound, the “Gmax (%) … as percentage of sown seeds” value in assay [3] (setting [6]) worked out at 74.5%; in assay [3] (setting [7]), 89.5%. The “stimulation (%), extra germination” value in assay [3] (setting [6]) is given as 24.2%; in assay [3] (setting [7]), −1.1%.
Turning to `CC(=O)N1C(=O)C(=COC2C=C(C)C(=O)O2)C2Cc3ccccc3C21` (stereo not drawn) [Compound A4], the “Seedling emergence (%)” value worked out at 62% in assay [1] (0.0001 g ai/kg seeds, FS100); 62.5% in assay [1] (0.005 g ai/kg seeds, FS100); 61.5% in assay [1] (setting [4]); 89% in assay [2] (0.0001 g ai/kg seeds); 90% in assay [2] (0.005 g ai/kg seeds); 86% in assay [2] (setting [5]). The “Total shoot dry mass” value turned out to be 4.788 g in assay [1] (0.0001 g ai/kg seeds); 4.550 g in assay [1] (0.005 g ai/kg seeds); 4.850 g in assay [1] (0.05 g ai/kg seeds); 6.035 g in assay [2] (0.0001 g ai/kg seeds); 5.908 g in assay [2] (0.005 g ai/kg seeds); 5.920 g in assay [2] (0.05 g ai/kg seeds). Also, the “Gmax (%) … as percentage of sown seeds” value in assay [3] (setting [6]) came to 82.0%; in assay [3] (setting [7]), 91.0%. The “stimulation (%), extra germination” value in assay [3] (setting [6]) was 36.7%; in assay [3] (setting [7]) it was 0.6%.
For `CC1=C(C)C(OC=C2C(=O)NC3c4ccccc4CC23)OC1=O` (stereo not drawn) [Compound A7], in assay [3] (setting [8]), the “Gmax (%) … as percentage of sown seeds” value is recorded as 68.5% and the “stimulation (%), extra germination” value was determined as 26.9%. Moreover, in assay [3] (setting [9]), the “Gmax (%) … as percentage of sown seeds” value amounted to 95.0% and the “stimulation (%), extra germination” value is reported as 10.5%.
As to `CC1=CC(OC=C2C(=O)N(C)C3c4ccccc4CC23)OC1=O` (stereo not drawn) [Compound A8], in assay [3] (setting [8]), the “Gmax (%) … as percentage of sown seeds” value amounted to 73.0% and the “stimulation (%), extra germination” value amounted to 35.2%. For the same compound, in assay [3] (setting [9]), the “Gmax (%) … as percentage of sown seeds” value amounted to 93.5% and the “stimulation (%), extra germination” value came out at 8.7%.
Turning to `CC1=C[C@H](O/C=C2/C(=O)O[C@@H]3c4ccccc4C[C@H]23)OC1=O` [GR24, reference compound], the “Gmax (%) … as percentage of sown seeds” value in assay [3] (setting [6]) was 71.5%; in assay [3] (setting [8]), 80.0%; in assay [3] (setting [7]) it was 93.5%; in assay [3] (setting [9]), 93.0%. The “stimulation (%), extra germination” value in assay [3] (setting [6]) was found to be 19.2%; in assay [3] (setting [8]), 48.1%; in assay [3] (setting [7]), 3.3%; in assay [3] (setting [9]) it was 8.1%.
